Key:
human Gal-3 (hGal-3) = human Gal-3 (hGal-3) (Homo sapiens (Human), UniProt P17931); assay: Competitive binding assay: binding of biotinylated hGal-3 to microplate-adsorbed asialofetuin (ASF); conditions: Activity on hGal-3; mean values of several measurements
How it was run: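 Spectrophotometric readout (streptavidin-peroxidase, ABTS) of biotinylated galectin retained on ASF-coated wells. Biotinylated hGal-1 or hGal-3, 300-1000 ng/mL, co-incubated with test compound 3 h at 4° C, then washed. Mean IC50 from repeat runs.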

human Gal-1 (hGal-1) = assay: Competitive binding assay: binding of biotinylated hGal-1 to microplate-adsorbed asialofetuin (ASF); conditions: Activities on hGal-1; mean values of several measurements
Chain of human Gal-1 (hGal-1) (P09382 2-135 limits assumed): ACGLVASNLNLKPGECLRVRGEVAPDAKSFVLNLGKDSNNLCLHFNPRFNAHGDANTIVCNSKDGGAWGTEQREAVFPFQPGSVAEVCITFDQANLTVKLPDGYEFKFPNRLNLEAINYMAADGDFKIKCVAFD
How it was run: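 For hGal-1, a variant with all six cysteines replaced by serines is preferred. Either galectin, biotinylated at 300-1000 ng/mL, competes with compound for microplate-bound ASF over 3 h at 4° C; peroxidase/ABTS detection gives IC50, averaged.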

Chain of human Gal-3 (hGal-3) (P17931 whole entry): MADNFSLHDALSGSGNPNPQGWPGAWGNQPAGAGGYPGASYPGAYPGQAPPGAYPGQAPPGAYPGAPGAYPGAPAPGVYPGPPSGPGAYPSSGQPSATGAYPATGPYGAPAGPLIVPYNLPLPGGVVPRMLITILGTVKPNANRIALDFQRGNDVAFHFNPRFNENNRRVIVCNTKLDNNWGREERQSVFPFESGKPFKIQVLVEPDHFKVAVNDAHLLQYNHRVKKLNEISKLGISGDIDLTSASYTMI

SMILES | IC50 (human Gal-3 (hGal-3)) | IC50 (human Gal-1 (hGal-1))
CO[C@@H]1[C@@H](n2cc(-c3ccc(F)c(F)c3F)nn2)[C@@H](O)[C@@H](CO)O[C@@H]1Cc1cn(C(C)(C)C)nn1 [Example 4.46, (2R,3R,4S,5R,6R)-6-((1-(tert-butyl)-1H-1,2,3-triazol-4-yl)methyl)-2-(hydroxymethyl)-5-methoxy-4-(4-(2,3,4-trifluorophenyl)-1H-1,2,3-triazol-1-yl)tetrahydro-2H-pyran-3-ol] | 0.045 µM | 0.31 µM
CO[C@@H]1[C@@H](n2cc(-c3cc(F)c(F)c(F)c3)nn2)[C@@H](O)[C@@H](CO)O[C@@H]1Cn1cc(C2(O)CCCCC2)nn1 [Example 4.47, (2R,3R,4S,5R,6R)-6-((4-(1-hydroxycyclohexyl)-1H-1,2,3-triazol-1-yl)methyl)-2-(hydroxymethyl)-5-methoxy-4-(4-(3,4,5-trifluorophenyl)-1H-1,2,3-triazol-1-yl)tetrahydro-2H-pyran-3-ol] | 0.33 µM | 3.06 µM
CO[C@@H]1[C@@H](n2cc(-c3cc(F)c(F)c(F)c3)nn2)[C@@H](O)[C@@H](CO)O[C@@H]1Cn1cc(C2CCCC2)nn1 [Example 4.48, (2R,3R,4S,5R,6R)-6-((4-cyclopentyl-1H-1,2,3-triazol-1-yl)methyl)-2-(hydroxymethyl)-5-methoxy-4-(4-(3,4,5-trifluorophenyl)-1H-1,2,3-triazol-1-yl)tetrahydro-2H-pyran-3-ol] | 0.25 µM | 2.86 µM
CO[C@@H]1[C@@H](n2cc(-c3cc(F)c(F)c(F)c3)nn2)[C@@H](O)[C@@H](CO)O[C@@H]1Cn1cc(C2(C)CCCC2)nn1 [Example 4.49, (2R,3R,4S,5R,6R)-2-(hydroxymethyl)-5-methoxy-6-((4-(1-methylcyclopentyl)-1H-1,2,3-triazol-1-yl)methyl)-4-(4-(3,4,5-trifluorophenyl)-1H-1,2,3-triazol-1-yl)tetrahydro-2H-pyran-3-ol] | 0.24 µM | 3.93 µM
CO[C@@H]1[C@@H](n2cc(-c3cc(F)c(F)c(F)c3)nn2)[C@@H](O)[C@@H](CO)O[C@@H]1Cn1cc(C2(C#N)CCCC2)nn1 [Example 4.50, 1-(1-(((2R,3R,4S,5R,6R)-5-hydroxy-6-(hydroxymethyl)-3-methoxy-4-(4-(3,4,5-trifluorophenyl)-1H-1,2,3-triazol-1-yl)tetrahydro-2H-pyran-2-yl)methyl)-1H-1,2,3-triazol-4-yl)cyclopentane-1-carbonitrile] | 0.33 µM | 4.29 µM
CO[C@@H]1[C@@H](n2cc(-c3cc(F)c(F)c(F)c3)nn2)[C@@H](O)[C@@H](CO)O[C@@H]1Cn1cc(C2(C)CCOCC2)nn1 [Example 4.51, (2R,3R,4S,5R,6R)-2-(hydroxymethyl)-5-methoxy-6-((4-(4-methyltetrahydro-2H-pyran-4-yl)-1H-1,2,3-triazol-1-yl)methyl)-4-(4-(3,4,5-trifluorophenyl)-1H-1,2,3-triazol-1-yl)tetrahydro-2H-pyran-3-ol] | 0.16 µM | 1.6 µM
CO[C@@H]1[C@@H](n2cc(-c3ccc(C)c(F)c3F)nn2)[C@@H](O)[C@@H](CO)O[C@@H]1Cc1cn(C(C)(C)C)nn1 [Example 4.52, (2R,3R,4S,5R,6R)-6-((1-(tert-butyl)-1H-1,2,3-triazol-4-yl)methyl)-4-(4-(2,3-difluoro-4-methylphenyl)-1H-1,2,3-triazol-1-yl)-2-(hydroxymethyl)-5-methoxytetrahydro-2H-pyran-3-ol] | 0.053 µM | 0.73 µM
CO[C@@H]1[C@@H](n2cc(-c3ccc(Cl)c(F)c3F)nn2)[C@@H](O)[C@@H](CO)O[C@@H]1Cc1cn(C(C)(C)C)nn1 [Example 4.53, (2R,3R,4S,5R,6R)-6-((1-(tert-butyl)-1H-1,2,3-triazol-4-yl)methyl)-4-(4-(4-chloro-2,3-difluorophenyl)-1H-1,2,3-triazol-1-yl)-2-(hydroxymethyl)-5-methoxytetrahydro-2H-pyran-3-ol] | 0.034 µM | 0.75 µM
CO[C@@H]1[C@@H](n2cc(-c3ccc(C)c(F)c3F)nn2)[C@@H](O)[C@@H](CO)O[C@@H]1Cn1cc(C(C)(C)C)nn1 [Example 4.54, (2R,3R,4S,5R,6R)-6-((4-(tert-butyl)-1H-1,2,3-triazol-1-yl)methyl)-4-(4-(2,3-difluoro-4-methylphenyl)-1H-1,2,3-triazol-1-yl)-2-(hydroxymethyl)-5-methoxytetrahydro-2H-pyran-3-ol] | 0.046 µM | 1.5 µM
CO[C@@H]1[C@@H](n2cc(-c3ccc(Cl)c(F)c3F)nn2)[C@@H](O)[C@@H](CO)O[C@@H]1Cn1cc(C(C)(C)C)nn1 [Example 4.55, (2R,3R,4S,5R,6R)-6-((4-(tert-butyl)-1H-1,2,3-triazol-1-yl)methyl)-4-(4-(4-chloro-2,3-difluorophenyl)-1H-1,2,3-triazol-1-yl)-2-(hydroxymethyl)-5-methoxytetrahydro-2H-pyran-3-ol] | 0.031 µM | 0.95 µM
CO[C@@H]1[C@@H](n2cc(-c3cc(F)c(F)c(F)c3)nn2)[C@@H](O)[C@@H](CO)O[C@@H]1C[C@@H]1CN(C2CCN(C(C)=O)CC2)C(=O)O1 [Example 5.05, (R)-3-(1-acetylpiperidin-4-yl)-5-(((2R,3R,4S,5R,6R)-5-hydroxy-6-(hydroxymethyl)-3-methoxy-4-(4-(3,4,5-trifluorophenyl)-1H-1,2,3-triazol-1-yl)tetrahydro-2H-pyran-2-yl)methyl)oxazolidin-2-one] | 0.33 µM | 0.3 µM
CO[C@@H]1[C@@H](n2cc(-c3cc(F)c(F)c(F)c3)nn2)[C@@H](O)[C@@H](CO)O[C@@H]1C[C@H]1CN(C2CCN(C(C)=O)CC2)C(=O)O1 [Example 5.06, (S)-3-(1-acetylpiperidin-4-yl)-5-(((2R,3R,4S,5R,6R)-5-hydroxy-6-(hydroxymethyl)-3-methoxy-4-(4-(3,4,5-trifluorophenyl)-1H-1,2,3-triazol-1-yl)tetrahydro-2H-pyran-2-yl)methyl)oxazolidin-2-one] | 0.096 µM | 0.27 µM
CO[C@@H]1[C@@H](n2cc(-c3cc(F)c(F)c(F)c3)nn2)[C@@H](O)[C@@H](CO)O[C@@H]1C[C@H]1CN(C2CCN(S(C)(=O)=O)CC2)C(=O)O1 [Example 5.07, (S)-5-(((2R,3R,4S,5R,6R)-5-hydroxy-6-(hydroxymethyl)-3-methoxy-4-(4-(3,4,5-trifluorophenyl)-1H-1,2,3-triazol-1-yl)tetrahydro-2H-pyran-2-yl)methyl)-3-(1-(methylsulfonyl)piperidin-4-yl)oxazolidin-2-one] | 0.28 µM | 7.57 µM
CO[C@@H]1[C@@H](n2cc(-c3cc(F)c(F)c(F)c3)nn2)[C@@H](O)[C@@H](CO)O[C@@H]1C[C@@H]1CN(C2CCN(S(C)(=O)=O)CC2)C(=O)O1 [Example 5.08, (R)-5-(((2R,3R,4S,5R,6R)-5-hydroxy-6-(hydroxymethyl)-3-methoxy-4-(4-(3,4,5-trifluorophenyl)-1H-1,2,3-triazol-1-yl)tetrahydro-2H-pyran-2-yl)methyl)-3-(1-(methylsulfonyl)piperidin-4-yl)oxazolidin-2-one] | 0.018 µM | 0.16 µM
CO[C@@H]1[C@@H](n2cc(-c3cc(F)c(F)c(F)c3)nn2)[C@@H](O)[C@@H](CO)O[C@@H]1C[C@H]1CN(C2CCN(C(=O)C(C)C)CC2)C(=O)O1 [Example 5.12, (S)-5-(((2R,3R,4S,5R,6R)-5-hydroxy-6-(hydroxymethyl)-3-methoxy-4-(4-(3,4,5-trifluorophenyl)-1H-1,2,3-triazol-1-yl)tetrahydro-2H-pyran-2-yl)methyl)-3-(1-isobutyrylpiperidin-4-yl)oxazolidin-2-one] | 0.13 µM | 1 µM
